Experimental data taken from patent US10799598B2, “Disulfide bridging conjugates” (Sorrento Therapeutics, Inc., priority 2017, dated 2020).

Tests used:
[1] = test system: PC-3 (PSMA-) prostate cancer cells; test: Luminescence cytotoxicity assay, absence of effector cells, PC-3; format: cell-based; details: PC-3 (PSMA absent), up to 20 nM, 4 days incubation
Experimental: (§1) Firefly luciferase transduced prostate cancer target cell lines were used for cytotoxicity assays, LNCaP (ATCC® CRL-1740™), PSMA+(cultured in RPMI-1640+10% non-heat-inactivated FBS+0.5 μg/mL Puromycin) and PC-3 (ATCC® CRL-1435™), PSMA-(cultured in RPMI-1640+10% heat-inactivated FBS+1.0 μg/mL Puromycin). Cells were harvested with TrypLE (ThermoFisher Scientific) then resuspended in fresh RPMI-1640+10% heat-inactivated FBS and plated at 4,000 cells/well in 100 μL. After overnight incubation at 37° C. in a humidified 5% CO2 incubator, serial dilutions of proteins in RPMI-1640+10% heat-inactivated medium (50 μL) were added to the assay plates at the indicated concentrations. In experiments utilizing effector cells, freshly thawed peripheral blood mononuclear cells (PBMCs) were washed with media and added to the assay plates at 40,000 cells in 50 μL to obtain an effector:target ratio of 10:1. After 4 days incubation, 90 μL was removed from assay plates and 90 μL ONE Glo Luciferase Assay Reagent (Promega # E6120) was mixed with the samples and incubated at room temperature for 10 min. Samples were transferred to white 96-well flat bottom plates for luminescence measurements using a PerkinElmer EnSpire multimode plate reader. Data was analyzed using GraphPad Prism software.

[2] = test system: LNCaP (PSMA+) prostate cancer cells; test: Luminescence cytotoxicity assay, absence of effector cells, LNCaP; format: cell-based; details: LNCaP (PSMA present), up to 20 nM, 4 days incubation
Experimental: as §1

`O=C(O)CCC(NC(=O)NC(CCC(=O)O)C(=O)O)C(=O)O` (centres unmarked) [DUPA small molecule, 2-[3-(1,3-dicarboxypropyl)ureido]pentanedioic acid] was tested, and the “dose-dependent cell killing activity” value [1] was “No dose-dependent cell killing activity was observed” and the “dose-dependent cell killing activity” value [2] was “No dose-dependent cell killing activity was observed”.
